Measured values reported in US20040260071A1, “Benzophene-linked crf and crf-like peptides for covalent labeling of corticotropin-releasing factor crf binding protein” (priority 2001, published 2004).
Values joined by “and” are separate entries in the source; they are usually repeats but may differ in a detail not shown here. Identical values can stand only once. Blank lines part the entries; values can stand above or below the compound they belong to. Non-standard residues stand in square brackets, D forms with d. Residues, ends and D or L forms follow the SMILES beside them. No end group written: not given here. *: point of attachment. Benzoyl(4-benzoyl) = O=C(c1ccccc1)c1ccc(C(=O)*)cc1; Bpa = N[C@@H](Cc1ccc(C(=O)c2ccccc2)cc1)C(=O)O

Legend:
[1] = molecular target: T1, rCRFBP (Rattus norvegicus, UniProt P24388); assay: Photoaffinity labeling of rCRFBP (photoadduct formation); type: biochemical; conditions: for Photoadduct yield determined by immunoblotting: comparison of photoprobes (FIG. 6)
T1 construct: made in house; host or cells: HEK 293 cells, stably transfected (pcDNA3); serum-free conditioned medium used directly
T1 sequence (P24388 25-322): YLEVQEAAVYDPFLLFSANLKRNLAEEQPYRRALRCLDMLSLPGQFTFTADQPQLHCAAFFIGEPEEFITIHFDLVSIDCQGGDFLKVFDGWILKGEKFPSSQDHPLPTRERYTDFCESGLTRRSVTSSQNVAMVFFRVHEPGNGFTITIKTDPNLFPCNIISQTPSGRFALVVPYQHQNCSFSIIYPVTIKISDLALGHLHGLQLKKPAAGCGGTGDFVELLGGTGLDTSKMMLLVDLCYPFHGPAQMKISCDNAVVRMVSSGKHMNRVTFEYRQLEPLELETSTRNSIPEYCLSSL
Method: 1 nM CRFBP was incubated with a 100 fold molar excess of photoactivatable ligand for 1 hour at room temperature. […] The irradiation was carried out with UV-light of wavelenghts greater than 300 nm in an ice bath.
rCRFBP (approximate final concentration 10 nM) was incubated with 100 nM of the photoactivatable peptide according to the conditions of the radioligand binding assay. Medium from stably transfected HEK 293 cells was directly used as source for rCRFBP. Irradiation of the benzophenone photoprobes was carried out at 0° C. with a self-constructed photoreaction device incorporating a 400 W halogen metal vapor lamp (Ultratech, Osram, Germany). This lamp provides a wide spectrum of emission at wavelenghts above 250 nm with a maximum at 370 nm which is consistent with the activation wavelenght (350-360 nm) for benzophenone derivatives (13). Protein-damaging wavelenghts below 300 nm were avoided by the use of a filter screen consisting of the optical glass type B 270 (Schoft, Mainz, Germany). The aryldiazirine photoprobe was irradiated as described (14) using a commercially available stratalinker device.
Unless otherwise stated, activation was carried out for 30 min at 0° C. with an Ultratech 400 W halogen metal vapor lamp (Osram). Protein-damaging wavelenghts below 300 nm were filtered with a B270 glass screen (Schott). Unlabeled rCRFBP and the photoadduct were co-purified by adsorption to a nickel-chelate matrix under denaturing conditions. The eluted fraction was analyzed by SDS PAGE (45) (9% polyacrylamide gels) and by reversed-phase HPLC coupled on-line to mass spectrometry (HPLC-MS) on a Vydac C4 column (0.3×150 mm; LC Packings).

[2] = molecular target: T1, rCRFBP; assay: Radioligand binding assay (charcoal precipitation, 3H-rUcn) for affinity to rCRFBP; conditions: for Ki: mean ± S.E.M. of three independent experiments in duplicate, 3H-rUcn radioligand, Cheng-Prusoff, read-out: Inhibition constants (Kl)
Method: The peptides were tested for their affinity to rCRFBP on the basis of a charcoal precipitation assay utilizing tritiated Ucn as radioligand (21). […] Siliconized microreaction vials (Sigma, Deisenhofen, Germany) were used to prevent binding of peptides to plastic surfaces. Competition binding experiments were performed by employing 0 to maximally 3 μM unlabeled competitor. The applied concentration range depended on the expected order of magnitude of ligand affinity. After 2 hours of incubation at room temperature, unbound ligand was precipitated by the addition of 100 μl precipitation buffer (binding buffer+10% w/v activated charcoal+2% BSA). The suspension was mixed vigorously and the adsorption was allowed to proceed for 2 min at room temperature. After centrifugation for 2 min at 12000×g, 200 μl supernatant was removed, mixed with 2 ml Ecolume liquid scintillation cocktail (ICN Biomedicals, Irvine, Calif.), and counted for 3 min in a Wallac 1209 Rackbeta liquid scintillation counter (Wallac, Turku, Finland). All assays were performed in duplicate and repeated at least three times. Binding data were analyzed using the Prism computer program (GraphPad Software, San Diego, Calif.).

[3] = molecular target: T1, rCRFBP; assay: Scintillation proximity assay with [125I-Tyr0]h/rCRF as radioligand, binding to rCRFBP; conditions: for IC50: Example 8, 95% CI given alongside, read-out: IC50 (affinity to rCRFBP)
Text: Recombinant rCRFBP containing a C-terminal His-tag was produced in human embryonic kidney (HEK) 293 cells under serum-free conditions (45).

[4] = molecular target: T2, CRFBP (Rattus norvegicus, UniProt P24388); conditions: relative to Svg; cited from earlier work
T2 sequence (P24388 25-322): T1 sequence (P24388 25-322)

[5] = photoprobes 100 nM, competitor 1 μM (FIG. 12a)
[6] = photoprobe pBB-rUcn, competitor in ten-fold excess (FIG. 5)

Compound: CC[C@H](C)[C@H](NC(=O)[C@H](CO)NC(=O)[C@H](CC(C)C)NC(=O)[C@@H]1CCCN1C(=O)[C@@H]1CCCN1C(=O)[C@H](CC(=O)O)NC(=O)[C@H](CC(=O)O)NC(=O)c1ccc(C(=O)c2ccccc2)cc1)C(=O)N[C@@H](CC(=O)O)C(=O)N[C@@H](CC(C)C)C(=O)N[C@H](C(=O)N[C@@H](Cc1ccccc1)C(=O)N[C@@H](Cc1c[nH]cn1)C(=O)N[C@@H](CC(C)C)C(=O)N[C@@H](CC(C)C)C(=O)N[C@@H](CCCNC(=N)N)C(=O)N[C@H](C(=O)N[C@@H](CC(C)C)C(=O)N[C@@H](CC(C)C)C(=O)N[C@@H](CCC(=O)O)C(=O)N[C@@H](CC(C)C)C(=O)N[C@@H](C)C(=O)N[C@@H](CCCNC(=N)N)C(=O)N[C@H](C(=O)N[C@@H](CCC(N)=O)C(=O)N[C@@H](CO)C(=O)N[C@@H](CCC(N)=O)C(=O)N[C@@H](CCCNC(=N)N)C(=O)N[C@@H](CCC(=O)O)C(=O)N[C@@H](CCCNC(=N)N)C(=O)N[C@@H](C)C(=O)N[C@@H](CCC(=O)O)C(=O)N[C@@H](CCC(N)=O)C(=O)N[C@@H](CC(N)=O)C(=O)N[C@@H](CCCNC(=N)N)C(=O)N[C@H](C(=O)N[C@H](C(=O)N[C@@H](Cc1ccccc1)C(=O)N[C@@H](CC(=O)O)C(=O)N[C@@H](CO)C(=O)N[C@H](C(N)=O)C(C)C)[C@@H](C)CC)[C@@H](C)CC)[C@@H](C)O)[C@@H](C)O)[C@@H](C)O [Compound 2, pBB-rUcn]
Photoadduct yield by integration of the UV trace ([1]; HPLC of affinity purified photoreaction products (FIG. 8)): 60%
Maximal photoadduct yield ([1]; Western blot densitometry, 30 min irradiation with B 270 filter screen (FIG. 4C)): up to 50%
Photoadduct yield determined by immunoblotting [1]: 50%
Photoadduct yield by SDS PAGE silver staining ([1]; preparative scale, nickel-affinity purified (FIG. 7)): 50%
Ki [2]: < 1 nM and 0.99 nM

Compound: CC[C@H](C)[C@H](NC(=O)[C@H](CO)NC(=O)[C@H](CC(C)C)NC(=O)[C@@H]1CCCN1C(=O)[C@@H]1CCCN1C(=O)[C@H](CC(=O)O)NC(=O)[C@@H](N)CC(=O)O)C(=O)N[C@@H](CC(=O)O)C(=O)N[C@@H](CC(C)C)C(=O)N[C@H](C(=O)N[C@@H](Cc1ccc(C(=O)c2ccccc2)cc1)C(=O)N[C@@H](Cc1c[nH]cn1)C(=O)N[C@@H](CC(C)C)C(=O)N[C@@H](CC(C)C)C(=O)N[C@@H](CCCNC(=N)N)C(=O)N[C@H](C(=O)N[C@@H](CC(C)C)C(=O)N[C@@H](CC(C)C)C(=O)N[C@@H](CCC(=O)O)C(=O)N[C@@H](CC(C)C)C(=O)N[C@@H](C)C(=O)N[C@@H](CCCNC(=N)N)C(=O)N[C@H](C(=O)N[C@@H](CCC(N)=O)C(=O)N[C@@H](CO)C(=O)N[C@@H](CCC(N)=O)C(=O)N[C@@H](CCCNC(=N)N)C(=O)N[C@@H](CCC(=O)O)C(=O)N[C@@H](CCCNC(=N)N)C(=O)N[C@@H](C)C(=O)N[C@@H](CCC(=O)O)C(=O)N[C@@H](CCC(N)=O)C(=O)N[C@@H](CC(N)=O)C(=O)N[C@@H](CCCNC(=N)N)C(=O)N[C@H](C(=O)N[C@H](C(=O)N[C@@H](Cc1ccccc1)C(=O)N[C@@H](CC(=O)O)C(=O)N[C@@H](CO)C(=O)N[C@H](C(N)=O)C(C)C)[C@@H](C)CC)[C@@H](C)CC)[C@@H](C)O)[C@@H](C)O)[C@@H](C)O [Compound 6, pBF^11-rUcn] (H-DDPPLSIDLT[Bpa]HLLRTLLELARTQSQRERAEQNRIIFDSV-NH2; N-terminus assumed)
Ki [2]: 400 ± 35 nM
Decrease of affinity to CRFBP relative to unmodified rUcn ([2]; modification within the central part of the peptide): three orders of magnitude

Compound: CC[C@H](C)[C@H](NC(=O)[C@H](CO)NC(=O)[C@H](CC(C)C)NC(=O)c1ccc(C(=O)c2ccccc2)cc1)C(=O)N[C@@H](CC(=O)O)C(=O)N[C@@H](CC(C)C)C(=O)N[C@H](C(=O)N[C@@H](Cc1ccccc1)C(=O)N[C@@H](Cc1c[nH]cn1)C(=O)N[C@@H](CC(C)C)C(=O)N[C@@H](CC(C)C)C(=O)N[C@@H](CCCNC(=N)N)C(=O)N[C@H](C(=O)N[C@@H](CC(C)C)C(=O)N[C@@H](CC(C)C)C(=O)N[C@@H](CCC(=O)O)C(=O)N[C@@H](CC(C)C)C(=O)N[C@@H](C)C(=O)N[C@@H](CCCNC(=N)N)C(=O)N[C@H](C(=O)N[C@@H](CCC(N)=O)C(=O)N[C@@H](CO)C(=O)N[C@@H](CCC(N)=O)C(=O)N[C@@H](CCCNC(=N)N)C(=O)N[C@@H](CCC(=O)O)C(=O)N[C@@H](CCCNC(=N)N)C(=O)N[C@@H](C)C(=O)N[C@@H](CCC(=O)O)C(=O)N[C@@H](CCC(N)=O)C(=O)O)[C@@H](C)O)[C@@H](C)O)[C@@H](C)O [Compound 8, pBB-rUcn^5-32] ({Benzoyl(4-benzoyl)}-LSIDLTFHLLRTLLELARTQSQRERAEQ-OH)
Ki [2]: 37 ± 3.5 nM

Compound: CC[C@H](C)[C@H](N)C(=O)N[C@@H](CO)C(=O)N[C@@H](CC(C)C)C(=O)N[C@@H](CC(=O)O)C(=O)N[C@@H](CC(C)C)C(=O)N[C@H](C(=O)N[C@@H](Cc1ccccc1)C(=O)N[C@@H](Cc1c[nH]cn1)C(=O)N[C@@H](CC(C)C)C(=O)N[C@@H](CC(C)C)C(=O)N[C@@H](CCCNC(=N)N)C(=O)N[C@@H](CCC(=O)O)C(=O)N[C@H](C(=O)N[C@@H](CC(C)C)C(=O)N[C@@H](CCC(=O)O)C(=O)N[C@@H](CCSC)C(=O)N[C@@H](C)C(=O)N[C@@H](CCCNC(=N)N)C(=O)N[C@@H](C)C(=O)N[C@@H](CCC(=O)O)C(=O)N[C@@H](CCC(N)=O)C(=O)N[C@@H](CC(C)C)C(=O)N[C@@H](C)C(=O)N[C@@H](CCC(N)=O)C(=O)N[C@@H](CCC(N)=O)C(=O)N[C@@H](C)C(=O)N[C@@H](Cc1ccc(C(=O)c2ccccc2)cc1)C(=O)N[C@@H](CO)C(=O)O)C(C)C)[C@@H](C)O [Compound 14, [pBPhe^32]h/rCRF^6-33] (H-ISLDLTFHLLREVLEMARAEQLAQQA[Bpa]S-OH; N-terminus assumed)
IC50 [3]: 2.1 nM

Compound: CC[C@H](C)[C@H](NC(=O)c1ccc(C(=O)c2ccccc2)cc1)C(=O)N[C@@H](CO)C(=O)N[C@@H](CC(C)C)C(=O)N[C@@H](CC(=O)O)C(=O)N[C@@H](CC(C)C)C(=O)N[C@H](C(=O)N[C@@H](Cc1ccccc1)C(=O)N[C@@H](Cc1c[nH]cn1)C(=O)N[C@@H](CC(C)C)C(=O)N[C@@H](CC(C)C)C(=O)N[C@@H](CCCNC(=N)N)C(=O)N[C@@H](CCC(=O)O)C(=O)N[C@H](C(=O)N[C@@H](CC(C)C)C(=O)N[C@@H](CCC(=O)O)C(=O)N[C@@H](CCSC)C(=O)N[C@@H](C)C(=O)N[C@@H](CCCNC(=N)N)C(=O)N[C@@H](C)C(=O)N[C@@H](CCC(=O)O)C(=O)N[C@@H](CCC(N)=O)C(=O)N[C@@H](CC(C)C)C(=O)N[C@@H](C)C(=O)N[C@@H](CCC(N)=O)C(=O)N[C@@H](CCC(N)=O)C(=O)N[C@@H](C)C(=O)N[C@@H](Cc1ccc(C(=O)c2ccccc2)cc1)C(=O)N[C@@H](CO)C(=O)O)C(C)C)[C@@H](C)O [Compound 15, [pBPhe^32] pBB-h/rCRF^6-33] ({Benzoyl(4-benzoyl)}-ISLDLTFHLLREVLEMARAEQLAQQA[Bpa]S-OH)
IC50 [3]: 14 nM
Decrease of affinity compared to h/rCRF^6-33 ([3]; bifunctional photoprobe): decreased by a factor of seven

Suppression of photoadduct formation by competitor [1, 5]: completely suppressed
Compound: H-ISLDLTFHLLREVLEMARAEQLAQQAHS-OH [Compound 9, h/rCRF^6-33, reference compound]

Ki [2]: 1.1 ± 0.06 nM
Compound: LSIDLTFHLLRTLLELARTQSQRERAEQ-OH [Compound 7, rUcn^5-32, reference compound]

Compound: [Ala^21]Svg
Increase of affinity to CRFBP by replacement of Glu^21 in Svg by Ala [4]: two orders of magnitude

Suppression of photoadduct formation by competitor [1, 6]: not
Suppression of photoadduct formation by competitor [1, 5]: not
Compound: ovine CRF [oCRF, reference compound]

Compound: pBB-h/rCRF [Compound 4]
Photoadduct yield determined by immunoblotting [1]: 50%

Compound: pBB-h/rCRF^6-33 [Compound 10]
Photoadduct yield at different time points of irradiation ([1]; immunodetection, densitometry (FIG. 12c)): ≤ 65%

Suppression of photoadduct formation by competitor [1, 6]: suppressed
Compound: rUcn [Compound 1, reference compound]
